Source: the NIST ThermoML archive (doi:10.1021/je0255980)
Values joined by “and” are separate entries in the source; they are usually repeats but may differ in a detail not shown here. Identical values can stand only once.

Settings: Liquid

CCCCCCOC(C)(C)CC(C)(C)C [pentane, 2-hexoxy-2,4,4-trimethyl-]
Settings | vapor or sublimation pressure [kPa]
295.8 K | 0.0053
298.8 K | 0.0069
301.9 K | 0.0086
304.9 K | 0.0111
308 K | 0.0141
311 K | 0.0162
314.1 K | 0.0215
317.1 K | 0.0255
320.1 K | 0.0321
323.1 K | 0.0406
326.2 K | 0.0502

CCCOC(C)(C)CC(C)(C)C [pentane, 2-propoxy-2,4,4-trimethyl-]
Settings | vapor or sublimation pressure [kPa]
274.3 K | 0.0336
277.3 K | 0.0443
278.2 K | 0.0491
280.2 K | 0.058
283.4 K | 0.07
286.2 K | 0.0913
289.3 K | 0.1179
292.3 K | 0.1404
294.4 K | 0.1616
296.3 K | 0.1858
297.4 K | 0.2008
297.8 K | 0.2103
298.3 K | 0.2196
299.3 K | 0.2293
300.3 K | 0.2411
301.2 K | 0.2557
302.2 K | 0.2825
303.2 K | 0.2956
304.3 K | 0.3231
305.2 K | 0.3294
306.2 K | 0.3595
307.2 K | 0.382
308.2 K | 0.3898

CCOC(C)(C)CC [1,1-dimethylpropyl ethyl ether]
Settings | vapor or sublimation pressure [kPa]
274.2 K | 1.413
276.2 K | 1.614
278.2 K | 1.821
280.2 K | 2.055
282.2 K | 2.341
284.2 K | 2.67
287.2 K | 3.214
290.2 K | 3.744
293.2 K | 4.439
296.2 K | 5.272
299.2 K | 6.128
302.2 K | 7.186

CCCOC(C)(C)CC [1,1-dimethylpropyl propyl ether]
Settings | vapor or sublimation pressure [kPa]
274.2 K | 0.4002
276.2 K | 0.4448
278.1 K | 0.5329
280.2 K | 0.6121
282.2 K | 0.7161
284.2 K | 0.7938
285.1 K | 0.8034
287.3 K | 0.9974
290.3 K | 1.199
293.3 K | 1.434
296.2 K | 1.799
299.2 K | 2.072
302.2 K | 2.332

CCC(C)(C)OC [2-methoxy-2-methylbutane]
Settings | vapor or sublimation pressure [kPa]
274.2 K | 2.693
276.2 K | 2.998
278.2 K | 3.315
280.2 K | 3.8
282.8 K | 4.422
283.8 K | 4.678
287.8 K | 5.69
292.9 K | 7.603
297.8 K | 9.142
302.8 K | 12.31
307.8 K | 14.55

COC(C)(C)CC(C)(C)C [methyl 1,1,3,3-tetramethylbutyl ether]
Settings | vapor or sublimation pressure [kPa]
276.2 K | 0.1656
277.3 K | 0.1859
278.3 K | 0.1958
280.3 K | 0.2383
283.2 K | 0.2818
283.3 K | 0.2759
286.3 K | 0.356
288.1 K | 0.3919
289.3 K | 0.4126
292.3 K | 0.5102
293.3 K | 0.5636
295.2 K | 0.6069
298 K | 0.7478
298.2 K | 0.7352
301.2 K | 0.8887
303.2 K | 1.022
304.2 K | 1.07
308 K | 1.339

CCCCOC(C)(C)CC(C)(C)C [butyl 1,1,3,3-tetramethylbutyl ether]
Settings | vapor or sublimation pressure [kPa]
278.3 K | 0.0128
281.3 K | 0.0165
284.3 K | 0.0206
287.3 K | 0.0269
290.3 K | 0.0324
293.3 K | 0.0413
296.3 K | 0.053
299.2 K | 0.0654
302.2 K | 0.0797
305.2 K | 0.1003
308.2 K | 0.1155
311.2 K | 0.1474
314.2 K | 0.1741

CCCCCOC(C)(C)CC(C)(C)C [pentane, 2-pentoxy-2,4,4-trimethyl-]
Settings | vapor or sublimation pressure [kPa]
277.5 K | 0.0037
279.5 K | 0.0044
281.5 K | 0.0052
283.5 K | 0.0062
285.6 K | 0.0073
288.6 K | 0.0095
291.6 K | 0.0124
294.7 K | 0.0155
297.7 K | 0.0194
300.7 K | 0.0247
303.2 K | 0.03

CCOC(C)(C)CC(C)(C)C [ethyl 1,1,3,3-tetramethylbutyl ether]
Settings | vapor or sublimation pressure [kPa]
274.3 K | 0.0913
277.2 K | 0.1201
280.1 K | 0.1414
283.2 K | 0.1829
286.1 K | 0.2218
289.2 K | 0.2772
292.2 K | 0.339
295.2 K | 0.4146
298.2 K | 0.5117
301.2 K | 0.6018

CC(C)COC(C)(C)C [isobutyl tert-butyl ether]
Settings | vapor or sublimation pressure [kPa]
273.3 K | 0.6788
275.4 K | 0.7463
276.4 K | 0.7981
278.5 K | 0.9
278.6 K | 0.938
280.4 K | 0.9803
282.5 K | 1.207
283.5 K | 1.362
284.6 K | 1.398
287.6 K | 1.664
288.4 K | 1.769
290.6 K | 1.996
293.4 K | 2.354
293.6 K | 2.439
295.6 K | 2.686
298.4 K | 3.187
298.7 K | 3.146
301.8 K | 3.723
303.4 K | 4.026
304.8 K | 4.451
308.4 K | 5.224

CCCCOC(C)(C)CC [butyl 1,1-dimethylpropyl ether]
Settings | vapor or sublimation pressure
274.2 K | 0.1111 kPa
276.2 K | 0.1278 kPa
278.2 K | 0.1602 kPa and 0.1508 kPa
281.3 K | 0.1842 kPa
283.2 K | 0.2344 kPa and 0.2179 kPa
285.2 K | 0.2509 kPa
286.2 K | 0.2632 kPa
288.2 K | 0.3232 kPa
290.2 K | 0.3551 kPa
293.2 K | 0.4784 kPa and 0.4372 kPa
296.2 K | 0.5522 kPa
298.2 K | 0.6658 kPa and 0.6132 kPa
301.2 K | 0.7443 kPa
303.2 K | 0.901 kPa
304.2 K | 0.9012 kPa
308.2 K | 1.199 kPa
